In ChEMBL document CHEMBL4610114, “Fragment-Based Discovery of Pyrazolopyridones as JAK1 Inhibitors with Excellent Subtype Selectivity” (J Med Chem, 2020):
≈ marks a conversion by molar mass, not a printed value.

Columns and labels:
[1] = target: T1, Tyrosine-protein kinase JAK1 (Homo sapiens, UniProt P23458)
[2] = target: T2, Tyrosine-protein kinase JAK3 (Homo sapiens, UniProt P52333)
T2 sequence (P52333 whole entry): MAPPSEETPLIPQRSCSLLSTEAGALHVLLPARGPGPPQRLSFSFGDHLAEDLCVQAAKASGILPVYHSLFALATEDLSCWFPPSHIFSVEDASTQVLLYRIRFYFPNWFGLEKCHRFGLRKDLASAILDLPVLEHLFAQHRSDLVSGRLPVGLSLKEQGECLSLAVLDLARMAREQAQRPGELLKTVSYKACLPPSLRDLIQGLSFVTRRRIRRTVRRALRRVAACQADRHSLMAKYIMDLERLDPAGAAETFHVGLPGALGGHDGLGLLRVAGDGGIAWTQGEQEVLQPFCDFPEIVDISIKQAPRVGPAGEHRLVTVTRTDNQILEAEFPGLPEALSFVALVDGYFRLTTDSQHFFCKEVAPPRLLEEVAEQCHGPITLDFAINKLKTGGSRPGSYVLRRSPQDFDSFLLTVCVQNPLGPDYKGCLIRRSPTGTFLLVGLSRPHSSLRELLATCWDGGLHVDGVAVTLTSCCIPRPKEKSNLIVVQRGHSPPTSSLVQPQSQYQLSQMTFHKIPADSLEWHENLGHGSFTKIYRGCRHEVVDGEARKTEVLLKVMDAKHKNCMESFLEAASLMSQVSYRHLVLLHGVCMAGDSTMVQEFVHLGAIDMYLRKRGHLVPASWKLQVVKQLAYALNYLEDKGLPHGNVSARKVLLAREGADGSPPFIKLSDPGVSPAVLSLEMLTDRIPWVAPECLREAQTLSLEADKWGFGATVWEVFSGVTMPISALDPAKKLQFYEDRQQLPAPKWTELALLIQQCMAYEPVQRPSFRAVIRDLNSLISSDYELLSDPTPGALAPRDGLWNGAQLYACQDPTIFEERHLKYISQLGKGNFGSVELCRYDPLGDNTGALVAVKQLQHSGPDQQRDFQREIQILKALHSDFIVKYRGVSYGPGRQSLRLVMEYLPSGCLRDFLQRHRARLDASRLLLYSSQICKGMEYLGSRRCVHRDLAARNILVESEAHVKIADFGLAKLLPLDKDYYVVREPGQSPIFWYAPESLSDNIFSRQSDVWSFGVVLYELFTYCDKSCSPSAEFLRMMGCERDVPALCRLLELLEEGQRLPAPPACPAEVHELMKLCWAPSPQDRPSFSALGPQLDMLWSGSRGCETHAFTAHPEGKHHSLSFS

[3] = target: T3, Tyrosine-protein kinase JAK2 (Homo sapiens, UniProt O60674)
T3 sequence (O60674 whole entry): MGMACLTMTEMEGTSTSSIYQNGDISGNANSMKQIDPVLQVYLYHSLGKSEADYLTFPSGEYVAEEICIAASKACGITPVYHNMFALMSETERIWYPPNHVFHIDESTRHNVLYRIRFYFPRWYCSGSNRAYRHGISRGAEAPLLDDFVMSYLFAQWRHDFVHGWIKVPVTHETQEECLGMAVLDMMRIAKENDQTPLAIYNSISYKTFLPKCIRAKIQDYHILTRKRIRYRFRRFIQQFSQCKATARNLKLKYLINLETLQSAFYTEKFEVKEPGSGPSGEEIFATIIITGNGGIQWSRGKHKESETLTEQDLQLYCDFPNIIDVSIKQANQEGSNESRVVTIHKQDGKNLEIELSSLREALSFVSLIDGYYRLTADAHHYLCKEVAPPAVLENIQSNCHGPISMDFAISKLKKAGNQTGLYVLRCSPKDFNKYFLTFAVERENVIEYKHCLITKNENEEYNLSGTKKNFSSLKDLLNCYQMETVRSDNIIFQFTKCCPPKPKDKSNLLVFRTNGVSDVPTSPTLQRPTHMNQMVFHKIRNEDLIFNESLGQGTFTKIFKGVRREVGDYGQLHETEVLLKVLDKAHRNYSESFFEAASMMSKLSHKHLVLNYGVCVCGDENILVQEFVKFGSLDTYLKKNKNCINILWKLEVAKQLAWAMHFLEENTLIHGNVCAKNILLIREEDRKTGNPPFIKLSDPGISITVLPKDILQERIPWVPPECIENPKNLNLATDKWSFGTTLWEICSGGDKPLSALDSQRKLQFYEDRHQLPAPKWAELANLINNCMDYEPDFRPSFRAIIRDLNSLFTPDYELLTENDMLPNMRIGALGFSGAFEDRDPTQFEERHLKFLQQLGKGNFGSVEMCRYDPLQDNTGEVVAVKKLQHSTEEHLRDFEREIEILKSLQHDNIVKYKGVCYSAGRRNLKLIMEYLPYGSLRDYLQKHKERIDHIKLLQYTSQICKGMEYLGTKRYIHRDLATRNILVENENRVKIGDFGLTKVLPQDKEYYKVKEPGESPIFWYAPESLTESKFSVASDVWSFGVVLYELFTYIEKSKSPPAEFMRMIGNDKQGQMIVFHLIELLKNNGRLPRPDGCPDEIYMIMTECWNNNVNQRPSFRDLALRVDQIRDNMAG
Description: Inhibition of JAK2 in human STAT5-irf1-bla TF1 cells assessed as reduction in EPO-induced STAT5-signalling pre-incubated for 1 hrs before EPO addition and further incubated for 4 hrs fluorescence based assay

[4] = target: T3, Tyrosine-protein kinase JAK2; remark: listed apart in the source
[5] = physchem; details: PBS buffer, pH 7.4
Description: Aqueous solubility in PBS buffer at pH 7.4 by HPLC analysis

[6] = target: T1, Tyrosine-protein kinase JAK1; remark: listed apart in the source
Description: Inhibition of JAK1 in human STAT6-bla-RA1 cells assessed as reduction in IL4-induced STAT6-signalling pre-incubated for 1 hrs before human recombinant IL4 addition and further incubated for 4 hrs fluorescence based assay

[7] = physchem; details: octanol/water
Description: Lipophilicity, logD of the compound by shake flask assay

[8] = target: Non-receptor tyrosine-protein kinase TYK2 (Homo sapiens, UniProt P29597)
Sequence of Non-receptor tyrosine-protein kinase TYK2 (P29597 whole entry): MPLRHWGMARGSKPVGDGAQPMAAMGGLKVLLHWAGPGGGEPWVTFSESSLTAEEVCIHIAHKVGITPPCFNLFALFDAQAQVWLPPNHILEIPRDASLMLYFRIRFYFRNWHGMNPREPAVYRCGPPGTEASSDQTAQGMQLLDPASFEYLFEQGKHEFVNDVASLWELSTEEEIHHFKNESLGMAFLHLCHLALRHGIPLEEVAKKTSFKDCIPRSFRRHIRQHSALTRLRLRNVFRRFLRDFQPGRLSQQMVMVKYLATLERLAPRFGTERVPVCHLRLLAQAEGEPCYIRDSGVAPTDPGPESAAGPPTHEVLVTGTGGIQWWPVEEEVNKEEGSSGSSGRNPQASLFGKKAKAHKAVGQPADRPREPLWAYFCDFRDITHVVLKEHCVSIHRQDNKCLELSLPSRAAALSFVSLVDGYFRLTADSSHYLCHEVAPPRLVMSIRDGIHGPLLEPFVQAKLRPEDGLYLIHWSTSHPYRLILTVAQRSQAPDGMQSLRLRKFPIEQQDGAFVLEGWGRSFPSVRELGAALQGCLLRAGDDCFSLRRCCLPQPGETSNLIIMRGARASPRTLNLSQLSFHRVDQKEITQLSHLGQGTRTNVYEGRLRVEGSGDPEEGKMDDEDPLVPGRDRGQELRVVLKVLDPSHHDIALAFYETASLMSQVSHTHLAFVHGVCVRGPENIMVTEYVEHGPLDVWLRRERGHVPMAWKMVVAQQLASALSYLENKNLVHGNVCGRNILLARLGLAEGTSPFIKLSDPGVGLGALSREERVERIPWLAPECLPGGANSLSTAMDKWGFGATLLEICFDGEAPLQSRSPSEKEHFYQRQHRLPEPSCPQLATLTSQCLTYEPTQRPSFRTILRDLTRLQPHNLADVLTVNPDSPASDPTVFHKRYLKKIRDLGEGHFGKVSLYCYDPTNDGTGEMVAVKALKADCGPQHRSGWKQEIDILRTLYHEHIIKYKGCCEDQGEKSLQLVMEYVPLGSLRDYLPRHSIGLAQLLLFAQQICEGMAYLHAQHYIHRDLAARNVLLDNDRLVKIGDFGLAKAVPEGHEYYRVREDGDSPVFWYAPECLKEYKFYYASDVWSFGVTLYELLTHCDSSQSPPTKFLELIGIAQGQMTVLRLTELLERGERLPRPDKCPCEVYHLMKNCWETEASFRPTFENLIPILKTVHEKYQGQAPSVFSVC

T1 sequence (P23458 whole entry): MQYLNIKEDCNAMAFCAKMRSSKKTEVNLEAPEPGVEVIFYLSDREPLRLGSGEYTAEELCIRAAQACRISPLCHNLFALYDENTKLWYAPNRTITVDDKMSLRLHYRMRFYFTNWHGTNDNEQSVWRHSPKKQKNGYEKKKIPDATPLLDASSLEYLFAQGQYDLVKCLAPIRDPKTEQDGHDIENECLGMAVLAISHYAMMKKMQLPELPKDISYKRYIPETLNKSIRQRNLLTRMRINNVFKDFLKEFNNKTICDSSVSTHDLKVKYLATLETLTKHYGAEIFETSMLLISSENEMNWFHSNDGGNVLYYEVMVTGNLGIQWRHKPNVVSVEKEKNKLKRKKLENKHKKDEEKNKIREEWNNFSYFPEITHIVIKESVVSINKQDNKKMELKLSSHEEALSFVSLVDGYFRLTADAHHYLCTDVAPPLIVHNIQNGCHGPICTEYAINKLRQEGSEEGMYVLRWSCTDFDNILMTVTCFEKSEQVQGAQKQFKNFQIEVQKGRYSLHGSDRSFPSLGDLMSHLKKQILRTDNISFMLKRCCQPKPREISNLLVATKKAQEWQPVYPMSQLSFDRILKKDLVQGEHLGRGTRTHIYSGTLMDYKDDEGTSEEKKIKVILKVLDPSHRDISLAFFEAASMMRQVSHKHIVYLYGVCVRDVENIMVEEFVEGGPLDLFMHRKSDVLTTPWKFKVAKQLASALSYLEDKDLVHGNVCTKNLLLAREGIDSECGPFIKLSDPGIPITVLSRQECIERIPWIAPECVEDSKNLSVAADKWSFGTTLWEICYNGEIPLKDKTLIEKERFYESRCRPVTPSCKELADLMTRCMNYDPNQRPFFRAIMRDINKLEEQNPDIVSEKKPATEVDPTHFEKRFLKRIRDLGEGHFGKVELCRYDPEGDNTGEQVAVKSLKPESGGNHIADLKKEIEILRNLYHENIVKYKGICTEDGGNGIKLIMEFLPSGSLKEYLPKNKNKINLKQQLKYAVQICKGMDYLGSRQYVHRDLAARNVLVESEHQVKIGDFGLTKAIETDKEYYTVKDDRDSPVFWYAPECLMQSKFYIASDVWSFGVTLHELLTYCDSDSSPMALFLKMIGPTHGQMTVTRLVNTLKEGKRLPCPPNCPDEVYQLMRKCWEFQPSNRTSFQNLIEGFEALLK

SMILES | IC50 [1] [nM] | IC50 [2] [nM] | IC50 [3] [nM] | IC50 [4] [nM] | solubility [5] [µM] | IC50 [6] [nM] | logD [7] | IC50 [8] [nM]
Cc1cc(=O)[nH]c2nn(C)c(C)c12 | > 500000 |  |  |  |  |  |  | 
O=c1cc(C2CCCCC2)c2c(C3CC3)[nH]nc2[nH]1 | 500 | 980 | > 40000 | 1300 |  | 1800 | 3.1 | 1600
CCCS(=O)(=O)N[C@H]1C[C@@H](N(C)c2ncnc3[nH]ccc23)C1 [ABROCITINIB] |  |  |  |  |  |  | 2 | 
O=c1cc(C(F)F)c2c[nH]nc2[nH]1 | > 100000 |  |  |  |  |  |  | 
Cc1cc(O)nc2c1c(C)nn2C | > 900000 |  |  |  |  |  |  | 
Cc1[nH]nc2[nH]c(=O)cc(-c3ccccc3)c12 | 2200 | 2600 |  | 4200 | > 90 | > 50000 | 2.2 | 3900
O=c1cc(C2CCCCC2)c2c[nH]nc2[nH]1 | 15000 | 12000 |  | 35000 |  | > 50000 |  | 24000
Cc1[nH]nc2[nH]c(=O)cc([C@H]3CC[C@H](NC(=O)C4CCCC4)CC3)c12 | 110 | 4800 | > 30000 | 1600 |  | 9100 |  | 6800
Cc1[nH]nc2[nH]c(=O)c(C#N)c(C3CCCCC3)c12 | 2100 | 5400 | > 40000 | 17000 |  | 20000 |  | 11000
CCc1[nH]nc2[nH]c(=O)cc(C3CCCCC3)c12 | 460 | 1600 | > 40000 | 2700 |  | 2500 | 3 | 

Next, values leading:

IC50 [1] [nM] | IC50 [2] [nM] | IC50 [3] [nM] | IC50 [4] [nM] | solubility [5] [µM] | IC50 [6] [nM] | logD [7] | IC50 [8] [nM] | SMILES
120 | 480 | > 40000 | 570 | 16 (≈ 3.48 µg/mL) | 3400 | 2.2 | 1100 | Cc1[nH]nc2[nH]c(=O)cc(CC3CCC3)c12
40 | 270 | > 40000 | 360 | 59 (≈ 15.9 µg/mL) | 1200 | 1.5 | 130 | Cc1[nH]nc2[nH]c(=O)cc([C@H]3CC[C@H](CC#N)CC3)c12
32 | 280 | 13000 | 160 | 18 (≈ 5.12 µg/mL) | 1200 | 1.8 |  | Cc1[nH]nc2[nH]c(=O)cc([C@H]3CC[C@H](CCC#N)CC3)c12
400 | 6600 |  | 2500 |  |  |  |  | Cc1[nH]nc2[nH]c(=O)cc([C@H]3CC[C@H](NS(=O)(=O)C4CC4)CC3)c12
730 | 11000 |  |  |  |  |  |  | Cc1[nH]nc2[nH]c(=O)cc([C@H]3CC[C@H](C#N)CC3)c12
 | 420 | 15000 | 93 |  |  |  | 180 | Cc1[nH]nc2[nH]c(=O)cc([C@@H]3C[C@@H]4C[C@H]3C[C@H]4CC#N)c12
490 | 1700 |  |  | > 85 | 20000 | 0.8 | 4200 | Cc1[nH]nc2[nH]c(=O)cc([C@H]3CC[C@H](O)CC3)c12
2000 | 1100 | > 40000 | 9400 |  | > 40000 |  | 14000 | Cc1[nH]nc2[nH]c(=O)cc([C@H]3CC[C@H](C(=O)NC4CC4)CC3)c12
40 | 1700 | > 10000 | 570 |  | 3200 |  |  | Cc1[nH]nc2[nH]c(=O)cc([C@H]3CC[C@H](NS(=O)(=O)CC4CCC4)CC3)c12
14 | 91 | > 25000 | 120 | 3 (≈ 1.05 µg/mL) | 420 |  |  | Cc1[nH]nc2[nH]c(=O)cc([C@H]3CC[C@H](OC(=O)[C@@H]4CC4(F)F)CC3)c12
30000 |  |  |  |  |  |  |  | Cc1cc(=O)[nH]c2n[nH]c(C)c12
820 | 11000 | > 40000 | 18000 |  | > 40000 |  | 16000 | Cc1[nH]nc2[nH]c(=O)cc([C@H]3CC[C@H](N)CC3)c12
